As a reminder, the viability is a read-out of living cells in per cent, often relative to untreated cells. High values mean less harm to the cells, low ones more harm to the cells.

The results in this text go back to PMC12644596 (Scientific Reports, 2025).

The nature of the series: MTT test, normal cells, 24 h. The series is classed as cell-based. The note with it: human, human dermal adult fibroblasts (HDFa). Background: Formazan colour is commonly taken as a measure of viable cells.

Turning to `O=[N+]([O-])c1ccc(NCCCCN=C=S)c2nonc12` [NBDC4NCS, N-(4-isothiocyanatobutyl)-7-nitro-2,1,3-benzoxadiazol-4-amine], the viability at 24 h was around 70%.
